Data on 2 compounds can be found in US20170020838A1, “TREATMENT FOR RESPIRATORY DISEASE” (MUCOKINETICA LIMITED, priority 2014, published 2017).

One experiment concerns ENaC. Particulars: human airway epithelial cells; Rasgado et al. 2009 & 2013; cited from earlier work.
Experiment [1] relates to ciliary transport of pig airway mucus secretions on the ex vivo trachea of transgenic CF piglets. The experiment can be described thus: Ciliary transport of mucus secretions on ex vivo trachea of transgenic CF piglets. Also noted: speed of ciliary transport at the first three time points (25, 40 and 55 min), day 1: dose or concentration left out as unconfirmed. The procedure:
FIG. 13 Study of the effects of 6-amidino-2-napthyl 4-guanidinobenzoate in BSS, and a combination of hyperosmotic saline and 6-amidino-2-napthyl 4-guanidinobenzoate in BSS on ciliary transport of pig airway mucus secretions on the ex vivo trachea of transgenic CF piglets. Transgenic CF piglets were produced as described by Klymiuk et al. 2012, and tracheas obtained at a Veterinary University. Study methods were otherwise as described in FIG. 10. Ciliary transport index (mean) was measured over two days with a second treatment period at the start of the second day.
Pig tracheas (from larynx to carina) from normal wild type animals were obtained from a local abattoir or Veterinary University. Transgenic CF piglets were produced as described by Klymiuk et al. 2012, and tracheas were obtained at a Veterinary University. The lumen of each trachea was cleaned by gentle irrigation with BSS. Tracheas were opened longitudinally with scissors along the posterior aspect and mounted with the posterior aspect upwards in a moist air-tight box. An aliquot of pig airway mucus approximately 3 mm diameter was placed on the mucosal surface close to the distal end of each trachea. Tracheal mucus velocity (TMV mm/min) was measured by recording the distance moved, towards the laryngeal end of the trachea, in a given time. At the start of a study three measurements of TMV were made for each trachea to establish a baseline rate for the trachea. Solutions were then pipetted onto the luminal mucosal surface of tracheas for 10 min. Then excess solution was tipped off the mucosal surface and measurement of TMV repeated. TMV results at each time point are expressed as % of the baseline TMV, ciliary transport index (mean±SD).

The next experiment relates to kidney sodium channel. Particulars: cortical collecting duct of the rabbit kidney; Muto et al. 1993; cited from earlier work.

On to `OC[C@@H](O)[C@@H](O)[C@H](O)[C@H](O)CO` [hyperosmotic mannitol, mannitol], for which the “effect of hyperosmotic concentrations on ENaC activity” value in the experiment with ENaC is on record as “reduced ENaC activity”.
For `N=C(N)Nc1ccc(C(=O)Oc2ccc3cc(C(=N)N)ccc3c2)cc1` [6-amidino-2-napthyl 4-guanidinobenzoate], the “speed of ciliary transport at the first three time points (25, 40 and 55 min), day 1” value in experiment [1] (in BSS, 10 min) was “no increase in speed”. Besides, the “speed of ciliary transport at the first time point (25 min), day 2” value in experiment [1] (second 10 min treatment with 10^−5 M at 14 h 10 min) was “No increase in speed”. Besides, in experiment [1] (transgenic CF pig tracheas), the “onset and duration profile of increased ciliary transport, both days” value is “slow-onset long duration”. Besides, the “action on the kidney sodium channel” value in the experiment with kidney sodium channel was “weak, short acting inhibitor”.
